From patent US12527782B2, “Use of hexokinase 2/mitochondria-detaching compounds for treating hexokinase-2 (HK2)-expressing cancers” (Vidac Pharma Ltd., priority 2016, dated 2026)

Legend:
[1] = system: HeLa cells; assay: Apoptosis induction in HeLa cells (FACS, propidium iodide and annexin V); assay type: cell-based; conditions: Homo sapiens, 48 hr incubation
Description: FIG. 12. Apoptosis induction in HeLa cells following 48 hr incubation with Compound (1) IC50=70 nM. Apoptosis was evaluated by FACS, labeling the cells with propidium iodide and annexin V.
FIG. 13. Apoptosis induction in HeLa cells following 48 hr incubation with Compound (1). IC50=70 nM. Apoptosis was evaluated by FACS, labeling the cells with propidium iodide and annexin V.

[2] = system: HeLa cells; assay: Lactate levels in culture media of HeLa cells (BioVision kit); assay type: cell-based; conditions: 20 μM
Description: FIG. 14. Lactate levels in the culture media of HeLa cells incubated with 20 μM Compound (1). Lactate levels were assayed with a BioVision kit (Catalog #K607-100).

IC50 [1]: 70 nM
Structure (SMILES): O=C(N1CCN(c2ccccc2)CC1)N1c2ccccc2Oc2ccccc21 [Compound (1)]
lactate levels in the culture media [2]: lowered lactate levels
